The record followed here is patent US12685735B2 (Foghorn Therapeutics Inc., priority 2020, dated 2026).

One test addresses BRG-1 (Homo sapiens, UniProt P51532). The test can be described thus: ATPase catalytic activity assay of BRG-1 (ADP-Glo). Particulars: ATPase catalytic activity, ADP-Glo; for IC50: read-out: BRG1 IC50 (μM)*; for Emax: read-out: BRG1 Max % Inhibition. In kind it is biochemical. In outline: (§1)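 Luminescence from ADP formed by BRM or BRG-1 ATPase was detected after a two-step ADP-Glo workup at room temperature. The first step, removing unconsumed ATP, took 40 min; the second, converting ADP to ATP for luciferase, took 60 min.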
For orientation: In ADP-Glo the light output rises with the ADP produced.

Another test addresses BRM (Homo sapiens, UniProt P51531). The test can be described thus: ATPase catalytic activity assay of BRM (ADP-Glo). In kind it is biochemical. Particulars: for IC50: read-out: BRM IC50 (μM)*. In outline: as §1

Chain of BRM (P51531 whole entry): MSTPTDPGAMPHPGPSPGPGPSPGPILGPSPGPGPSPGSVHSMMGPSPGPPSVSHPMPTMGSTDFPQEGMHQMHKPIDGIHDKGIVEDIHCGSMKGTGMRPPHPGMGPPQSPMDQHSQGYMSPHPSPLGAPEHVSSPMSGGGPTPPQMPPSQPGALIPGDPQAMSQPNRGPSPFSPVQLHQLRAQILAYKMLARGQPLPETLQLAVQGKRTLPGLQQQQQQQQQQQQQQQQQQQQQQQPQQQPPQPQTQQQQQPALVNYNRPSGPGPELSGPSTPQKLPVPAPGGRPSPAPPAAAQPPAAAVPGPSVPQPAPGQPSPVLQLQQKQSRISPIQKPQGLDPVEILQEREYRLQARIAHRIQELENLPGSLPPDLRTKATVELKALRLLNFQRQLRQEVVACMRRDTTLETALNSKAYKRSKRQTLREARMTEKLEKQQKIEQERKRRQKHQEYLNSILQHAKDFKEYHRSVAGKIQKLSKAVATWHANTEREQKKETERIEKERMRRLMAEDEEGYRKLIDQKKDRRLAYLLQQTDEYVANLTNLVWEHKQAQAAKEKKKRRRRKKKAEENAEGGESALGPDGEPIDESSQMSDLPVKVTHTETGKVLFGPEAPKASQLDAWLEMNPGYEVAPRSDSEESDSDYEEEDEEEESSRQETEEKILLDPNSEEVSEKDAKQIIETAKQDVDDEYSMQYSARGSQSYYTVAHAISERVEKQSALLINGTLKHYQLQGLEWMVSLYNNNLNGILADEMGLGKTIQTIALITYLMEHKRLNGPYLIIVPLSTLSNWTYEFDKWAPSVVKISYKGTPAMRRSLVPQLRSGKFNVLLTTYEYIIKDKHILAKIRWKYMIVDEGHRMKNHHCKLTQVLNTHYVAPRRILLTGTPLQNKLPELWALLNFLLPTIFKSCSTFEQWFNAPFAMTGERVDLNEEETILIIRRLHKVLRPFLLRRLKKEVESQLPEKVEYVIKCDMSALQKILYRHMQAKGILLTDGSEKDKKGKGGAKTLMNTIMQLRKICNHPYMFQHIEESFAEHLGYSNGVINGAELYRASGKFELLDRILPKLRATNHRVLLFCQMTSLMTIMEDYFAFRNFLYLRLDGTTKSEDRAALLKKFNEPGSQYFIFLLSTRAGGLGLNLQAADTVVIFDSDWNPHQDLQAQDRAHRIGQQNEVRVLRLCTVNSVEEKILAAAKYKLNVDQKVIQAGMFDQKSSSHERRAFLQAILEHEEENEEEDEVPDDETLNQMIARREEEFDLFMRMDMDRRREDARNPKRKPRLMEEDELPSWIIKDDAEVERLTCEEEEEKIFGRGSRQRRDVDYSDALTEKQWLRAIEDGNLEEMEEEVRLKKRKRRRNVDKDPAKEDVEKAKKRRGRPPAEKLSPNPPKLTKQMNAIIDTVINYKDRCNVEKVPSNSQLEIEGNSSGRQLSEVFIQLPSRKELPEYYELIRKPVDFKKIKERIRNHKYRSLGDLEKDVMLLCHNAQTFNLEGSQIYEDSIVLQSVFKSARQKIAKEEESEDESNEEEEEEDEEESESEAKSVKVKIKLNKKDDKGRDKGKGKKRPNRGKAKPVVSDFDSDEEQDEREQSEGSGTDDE
Chain of BRG-1 (P51532 whole entry): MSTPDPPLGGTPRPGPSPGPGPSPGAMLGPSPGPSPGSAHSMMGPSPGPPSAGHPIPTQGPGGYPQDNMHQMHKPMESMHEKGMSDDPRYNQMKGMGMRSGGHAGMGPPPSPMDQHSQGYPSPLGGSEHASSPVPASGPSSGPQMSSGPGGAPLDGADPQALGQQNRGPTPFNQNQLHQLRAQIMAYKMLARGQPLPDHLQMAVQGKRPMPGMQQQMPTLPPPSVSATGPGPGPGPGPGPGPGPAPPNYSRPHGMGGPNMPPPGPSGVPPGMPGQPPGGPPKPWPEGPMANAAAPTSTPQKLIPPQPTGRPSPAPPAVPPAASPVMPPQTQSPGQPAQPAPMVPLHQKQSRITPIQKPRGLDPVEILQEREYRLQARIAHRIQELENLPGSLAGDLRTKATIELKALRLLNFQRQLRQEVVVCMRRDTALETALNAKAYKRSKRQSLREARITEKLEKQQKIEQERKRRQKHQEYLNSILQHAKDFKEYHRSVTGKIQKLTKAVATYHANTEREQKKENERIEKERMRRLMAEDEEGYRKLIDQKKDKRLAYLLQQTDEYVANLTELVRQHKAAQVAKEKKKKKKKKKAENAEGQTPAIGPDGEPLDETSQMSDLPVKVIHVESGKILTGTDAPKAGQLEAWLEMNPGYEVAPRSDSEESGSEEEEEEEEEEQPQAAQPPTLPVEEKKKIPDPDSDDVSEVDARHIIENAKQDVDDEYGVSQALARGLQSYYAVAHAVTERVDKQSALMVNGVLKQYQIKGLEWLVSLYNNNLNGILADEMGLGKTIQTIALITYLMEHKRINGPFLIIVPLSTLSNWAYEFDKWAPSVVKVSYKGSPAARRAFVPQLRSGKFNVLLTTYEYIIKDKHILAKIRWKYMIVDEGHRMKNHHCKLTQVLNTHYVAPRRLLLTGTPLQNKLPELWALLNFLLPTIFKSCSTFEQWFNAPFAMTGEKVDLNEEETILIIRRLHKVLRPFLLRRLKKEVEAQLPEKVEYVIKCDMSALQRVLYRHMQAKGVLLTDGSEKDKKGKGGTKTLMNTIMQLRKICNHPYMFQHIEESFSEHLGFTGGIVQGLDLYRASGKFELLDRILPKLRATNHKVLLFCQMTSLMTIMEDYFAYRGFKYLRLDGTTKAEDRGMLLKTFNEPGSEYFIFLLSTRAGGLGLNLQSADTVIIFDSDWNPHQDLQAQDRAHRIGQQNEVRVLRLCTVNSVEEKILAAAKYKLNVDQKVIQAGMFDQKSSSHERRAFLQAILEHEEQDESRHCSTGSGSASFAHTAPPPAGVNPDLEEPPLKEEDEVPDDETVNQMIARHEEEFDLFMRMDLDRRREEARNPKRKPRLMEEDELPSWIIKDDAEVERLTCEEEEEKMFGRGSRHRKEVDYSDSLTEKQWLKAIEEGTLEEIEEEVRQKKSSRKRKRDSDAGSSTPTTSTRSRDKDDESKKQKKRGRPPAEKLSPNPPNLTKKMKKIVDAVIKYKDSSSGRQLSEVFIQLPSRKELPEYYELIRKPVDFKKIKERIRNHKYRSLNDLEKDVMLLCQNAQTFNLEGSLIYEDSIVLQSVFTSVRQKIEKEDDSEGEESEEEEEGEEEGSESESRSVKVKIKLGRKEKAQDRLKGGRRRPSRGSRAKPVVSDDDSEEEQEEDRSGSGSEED

As for `Cc1cc(-c2cccc(-c3csc(NC(=O)CNC(=O)c4ccc5c(c4)[C@](C)(CO)CCC5)n3)n2)ncn1` [Compound 208, (R)-8-(hydroxymethyl)-8-methyl-N-(2-((4-(6-(6-methylpyrimidin-4-yl)pyridin-2-yl)thiazol-2-yl)amino)-2-oxoethyl)-5,6,7,8-tetrahydronaphthalene-2-carboxamide], on BRG-1, the IC50 is 1 to 5 µM and the Emax is greater than 60%. On BRM, the “BRM Max % Inhibition” value is greater than 95% and the IC50 fell in the range of 0.1 to 1 µM.

Regarding `CC(C)(CN)c1cccc(C(=O)NCC(=O)Nc2nc(-c3cccc(-c4cccc(CN)c4)c3)cs2)c1` [Compound 209, 3-(2-amino-1,1-dimethyl-ethyl)-N-[2-[[4-[3-[3-(aminomethyl)phenyl]phenyl]thiazol-2-yl]amino]-2-oxo-ethyl]benzamide], at BRG-1, the IC50 is 1 to 5 µM and the Emax is greater than 50%. Also, at BRM, the “BRM Max % Inhibition” value is reported as greater than 90% and the IC50 was 0.1 to 1 µM.

For the molecule `CC1(C)c2cc(C(=O)NCC(=O)Nc3nc(-c4cccc(-c5ccncc5)c4)cs3)ccc2C[C@H]1N` [Compound 210, (R)-2-amino-3,3-dimethyl-N-(2-oxo-2-((4-(3-(pyridin-4-yl)phenyl)thiazol-2-yl)amino)ethyl)-2,3-dihydro-1H-indene-5-carboxamide], at BRG-1, the IC50 fell in the range of 0.1 to 1 µM and the Emax is greater than 80%. Moreover, at BRM, the “BRM Max % Inhibition” value is recorded as greater than 95% and the IC50 is less than 0.1 µM.

With `Cc1nccc(-c2cccc(-c3csc(NC(=O)CNC(=O)c4ccc5c(c4)[C@@](C)(CO)CCC5)n3)n2)n1` [Compound 211, (4S)-4-(hydroxymethyl)-4-methyl-N-[2-[[4-[6-(2-methylpyrimidin-4-yl)-2-pyridyl]thiazol-2-yl]amino]-2-oxo-ethyl]tetralin-6-carboxamide], on BRG-1, the IC50 is greater than 5 µM and the Emax is greater than 40%. Further, on BRM, the “BRM Max % Inhibition” value was greater than 80% and the IC50 lay within 0.1 to 1 µM.

In the case of `Cc1nccc(-c2cccc(-c3csc(NC(=O)CNC(=O)c4ccc5c(c4)[C@](C)(CO)CCC5)n3)n2)n1` [Compound 212, (4R)-4-(hydroxymethyl)-4-methyl-N-[2-[[4-[6-(2-methylpyrimidin-4-yl)-2-pyridyl]thiazol-2-yl]amino]-2-oxo-ethyl]tetralin-6-carboxamide], at BRG-1, the IC50 is greater than 5 µM and the Emax was less than 30%. On BRM, the “BRM Max % Inhibition” value is greater than 70% and the IC50 lay within 0.1 to 1 µM.

Take `Cc1nccc(-c2cccc(-c3csc(NC(=O)CNC(=O)c4ccc5c(c4)[C@@](C)(CO)CC5)n3)n2)n1` [Compound 214]: on BRG-1, the IC50 lay in the range of 0.1 to 1 µM and the Emax is greater than 80%. Besides, on BRM, the “BRM Max % Inhibition” value is recorded as greater than 90% and the IC50 fell in the range of 0.1 to 1 µM.

Consider `Cc1nccc(-c2cccc(-c3csc(NC(=O)CNC(=O)c4ccc5c(c4)[C@](C)(CO)CC5)n3)n2)n1` [Compound 215], for which, on BRG-1, the IC50 was 0.1 to 1 µM and the Emax is greater than 80%. Further, on BRM, the “BRM Max % Inhibition” value is given as greater than 95% and the IC50 is less than 0.1 µM.

As for `Cc1cc(-c2cccc(-c3csc(NC(=O)CNC(=O)c4ccc(Cl)c(C(C)(C)CO)c4)n3)n2)ncn1` [Compound 216, 4-chloro-3-(2-hydroxy-1,1-dimethyl-ethyl)-N-[2-[[4-[6-(6-methylpyrimidin-4-yl)-2-pyridyl]thiazol-2-yl]amino]-2-oxo-ethyl]benzamide], on BRG-1, the IC50 fell in the range of 0.1 to 1 µM and the Emax was greater than 95%. At BRM, the “BRM Max % Inhibition” value is greater than 95% and the IC50 was less than 0.1 µM.

`C[C@@H]1CN(c2cccc(-c3csc(NC(=O)CNC(=O)c4cccc(C(C)(C)C)c4)n3)c2)C[C@H](C)O1` [Compound 217, 3-tert-butyl-N-[2-[[4-[3-[(cis)-2,6-dimethylmorpholin-4-yl]phenyl]thiazol-2-yl]amino]-2-oxo-ethyl]benzamide]: at BRG-1, the IC50 was in the range of 0.1 to 1 µM and the Emax was greater than 90%. At BRM, the “BRM Max % Inhibition” value is given as greater than 95% and the IC50 is less than 0.1 µM.

For the molecule `C[C@@H]1CN(c2cccc(-c3csc(NC(=O)CNC(=O)c4ccc5c(c4)[C@](C)(CO)CC5)n3)c2)C[C@H](C)O1` [Compound 218, (R)-N-(2-((4-(3-((cis)-2,6-dimethylmorpholino)phenyl)thiazol-2-yl)amino)-2-oxoethyl)-3-(hydroxymethyl)-3-methyl-2,3-dihydro-1H-indene-5-carboxamide], at BRG-1, the IC50 lay in the range of 1 to 5 µM and the Emax is greater than 80%. Besides, at BRM, the “BRM Max % Inhibition” value is listed as greater than 90% and the IC50 fell in the range of 0.1 to 1 µM.

As to `C[C@@H]1CN(c2cccc(-c3csc(NC(=O)CNC(=O)c4ccc5c(c4)[C@@](C)(CO)CC5)n3)c2)C[C@H](C)O1` [Compound 219, (S)-N-(2-((4-(3-((cis)-2,6-dimethylmorpholino)phenyl)thiazol-2-yl)amino)-2-oxoethyl)-3-(hydroxymethyl)-3-methyl-2,3-dihydro-1H-indene-5-carboxamide], at BRG-1, the IC50 fell in the range of 0.1 to 1 µM and the Emax is greater than 90%. Also, at BRM, the “BRM Max % Inhibition” value is on record as greater than 95% and the IC50 is less than 0.1 µM.

Turning to `Cc1nccc(-c2cccc(-c3csc(NC(=O)CNC(=O)c4cccc(C(C)(C)CO)c4)n3)n2)n1` [Compound 222, 3-(2-hydroxy-1,1-dimethyl-ethyl)-N-[2-[[4-[6-(2-methylpyrimidin-4-yl)-2-pyridyl]thiazol-2-yl]amino]-2-oxo-ethyl]benzamide], at BRG-1, the IC50 was in the range of 0.1 to 1 µM and the Emax is greater than 80%. Further, at BRM, the “BRM Max % Inhibition” value is given as greater than 95% and the IC50 is less than 0.1 µM.

On to `C[C@@H]1CN(c2cccc(-c3csc(NC(=O)CNC(=O)c4ccc5c(c4)[C@](C)(CO)CC5)n3)n2)C[C@H](C)O1` [Compound 223, (R)-N-(2-((4-(6-((cis)-2,6-dimethylmorpholino)pyridin-2-yl)thiazol-2-yl)amino)-2-oxoethyl)-3-(hydroxymethyl)-3-methyl-2,3-dihydro-1H-indene-5-carboxamide], for which, on BRG-1, the IC50 was 1 to 5 µM and the Emax was greater than 80%. Besides, at BRM, the “BRM Max % Inhibition” value is greater than 95% and the IC50 is less than 0.1 µM.

On to `C[C@@H]1CN(c2cccc(-c3csc(NC(=O)CNC(=O)c4ccc5c(c4)[C@@](C)(CO)CC5)n3)n2)C[C@H](C)O1` [Compound 224, (3S)-N-[2-[[4-[6-[(cis)-2,6-dimethylmorpholin-4-yl]-2-pyridyl]thiazol-2-yl]amino]-2-oxo-ethyl]-3-(hydroxymethyl)-3-methyl-indane-5-carboxamide], for which, on BRG-1, the IC50 lay within 0.1 to 1 µM and the Emax was greater than 95%. Also, on BRM, the “BRM Max % Inhibition” value is greater than 95% and the IC50 is less than 0.1 µM.

With `Cc1cc(-c2cccc(-c3csc(NC(=O)CNC(=O)c4ccc5c(c4)[C@](C)(CN)CCC5)n3)c2)cc(C)n1` [Compound 225, (4R)-4-(aminomethyl)-N-[2-[[4-[3-(2,6-dimethyl-4-pyridyl)phenyl]thiazol-2-yl]amino]-2-oxo-ethyl]-4-methyl-tetralin-6-carboxamide], on BRG-1, the IC50 was greater than 5 µM and the Emax was greater than 40%. Moreover, at BRM, the “BRM Max % Inhibition” value was greater than 80% and the IC50 is 0.1 to 1 µM.

Regarding `C[C@]1(CO)CCc2c(C(=O)NCC(=O)Nc3nc(-c4cccc(-c5ccncc5)c4)cs3)cccc21` [Compound 226, (S)-1-(hydroxymethyl)-1-methyl-N-(2-oxo-2-((4-(3-(pyridin-4-yl)phenyl)thiazol-2-yl)amino)ethyl)-2,3-dihydro-1H-indene-4-carboxamide], on BRG-1, the 50% inhibitory concentration (IC50) lay in the range of 1 to 5 µM and the Emax was greater than 70%. Also, on BRM, the “BRM Max % Inhibition” value was greater than 95% and the IC50 fell in the range of 0.1 to 1 µM.

Consider `Cc1cc(-c2cccc(-c3csc(NC(=O)CNC(=O)c4ccc5c(c4)[C@@](C)(CO)CC5)n3)c2)nc(C)n1` [Compound 227, (3S)-N-[2-[[4-[3-(2,6-dimethylpyrimidin-4-yl)phenyl]thiazol-2-yl]amino]-2-oxo-ethyl]-3-(hydroxymethyl)-3-methylindane-5-carboxamide], for which, on BRG-1, the IC50 was less than 0.1 µM and the Emax was greater than 95%. For the same molecule, at BRM, the “BRM Max % Inhibition” value is greater than 95% and the IC50 was less than 0.1 µM.

As for `Cc1cc(-c2cccc(-c3csc(NC(=O)CNC(=O)c4ccc5c(c4)[C@](C)(CO)CC5)n3)c2)nc(C)n1` [Compound 228, (3R)-N-[2-[[4-[3-(2,6-dimethylpyrimidin-4-yl)phenyl]thiazol-2-yl]amino]-2-oxo-ethyl]-3-(hydroxymethyl)-3-methyl-indane-5-carboxamide], at BRG-1, the IC50 is less than 0.1 µM and the Emax was greater than 95%. For the same molecule, at BRM, the “BRM Max % Inhibition” value was greater than 95% and the IC50 was less than 0.1 µM.

As for `Cc1cc(-c2cccc(-c3csc(NC(=O)CNC(=O)c4cccc(C(C)(C)CO)c4)n3)n2)ncn1` [Compound 230, 3-(2-hydroxy-1,1-dimethyl-ethyl)-N-[2-[[4-[6-(6-methylpyrimidin-4-yl)-2-pyridyl]thiazol-2-yl]amino]-2-oxo-ethyl]benzamide], at BRG-1, the IC50 was in the range of 0.1 to 1 µM and the Emax is greater than 80%. In addition, at BRM, the “BRM Max % Inhibition” value is greater than 95% and the IC50 was less than 0.1 µM.

Consider `Cc1cc(-c2cccc(-c3csc(NC(=O)CNC(=O)c4ccc5c(c4)[C@@](C)(CO)CCC5)n3)c2)cc(C)n1` [Compound 231, (S)-N-(2-((4-(3-(2,6-dimethylpyridin-4-yl)phenyl)thiazol-2-yl)amino)-2-oxoethyl)-8-(hydroxymethyl)-8-methyl-5,6,7,8-tetrahydronaphthalene-2-carboxamide], for which, at BRG-1, the IC50 was 0.1 to 1 µM and the Emax is greater than 80%. In addition, at BRM, the “BRM Max % Inhibition” value is reported as greater than 95% and the IC50 is less than 0.1 µM.

The IC50 is the concentration that gives 50% inhibition.
